These are literature values, as cited in patent publication US4122157A, “Nitrofurantoin sustained release tablet” (Richardson-Merrell Inc., priority 1977, dated 1978).

The conditions of the data set: background statement.

`O=C1CN(N=Cc2ccc([N+](=O)[O-])o2)C(=O)N1` [Nitrofurantoin, 1-[(5-nitrofurfurylidene)amino]hydantoin]: the tolerability in humans entry is “remarkably well tolerated in humans”. For the same molecule, the “most frequent adverse reactions” value (humans) was “anorexia, nausea and emesis”.
